# Experimental data published in paper PMC6399515 (Insect Biochemistry and Molecular Biology, 2016).
# How the values were obtained:
# [1] = target: CYP6M2 (Anopheles gambiae, UniProt Q7Q449); assay: biochemical
# [2] = test system: all mosquito P450s of the panel apart from CYP6Z2 (CYP6M2, CYP6P2, CYP6P3, CYP6P4, CYP9J5); assay: in vitro; conditions: Anopheles gambiae
# [3] = target: T1, CYP6Z2 (Anopheles gambiae, UniProt A8I285); assay: biochemical
# T1 sequence (A8I285 1-492): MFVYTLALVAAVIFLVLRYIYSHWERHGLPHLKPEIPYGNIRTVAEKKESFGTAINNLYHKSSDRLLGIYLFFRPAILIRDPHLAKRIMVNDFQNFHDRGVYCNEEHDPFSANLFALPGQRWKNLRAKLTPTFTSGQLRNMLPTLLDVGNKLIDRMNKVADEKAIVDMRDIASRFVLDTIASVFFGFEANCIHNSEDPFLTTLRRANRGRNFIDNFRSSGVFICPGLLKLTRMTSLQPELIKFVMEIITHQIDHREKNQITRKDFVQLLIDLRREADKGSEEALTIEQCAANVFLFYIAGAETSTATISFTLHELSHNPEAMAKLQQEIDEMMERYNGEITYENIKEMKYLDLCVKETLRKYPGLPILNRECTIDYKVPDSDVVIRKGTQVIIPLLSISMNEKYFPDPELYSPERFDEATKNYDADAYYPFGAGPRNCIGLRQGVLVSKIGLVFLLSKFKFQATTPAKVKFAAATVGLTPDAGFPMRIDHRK
# T1 sequence (Q86QH5 1-679 partner): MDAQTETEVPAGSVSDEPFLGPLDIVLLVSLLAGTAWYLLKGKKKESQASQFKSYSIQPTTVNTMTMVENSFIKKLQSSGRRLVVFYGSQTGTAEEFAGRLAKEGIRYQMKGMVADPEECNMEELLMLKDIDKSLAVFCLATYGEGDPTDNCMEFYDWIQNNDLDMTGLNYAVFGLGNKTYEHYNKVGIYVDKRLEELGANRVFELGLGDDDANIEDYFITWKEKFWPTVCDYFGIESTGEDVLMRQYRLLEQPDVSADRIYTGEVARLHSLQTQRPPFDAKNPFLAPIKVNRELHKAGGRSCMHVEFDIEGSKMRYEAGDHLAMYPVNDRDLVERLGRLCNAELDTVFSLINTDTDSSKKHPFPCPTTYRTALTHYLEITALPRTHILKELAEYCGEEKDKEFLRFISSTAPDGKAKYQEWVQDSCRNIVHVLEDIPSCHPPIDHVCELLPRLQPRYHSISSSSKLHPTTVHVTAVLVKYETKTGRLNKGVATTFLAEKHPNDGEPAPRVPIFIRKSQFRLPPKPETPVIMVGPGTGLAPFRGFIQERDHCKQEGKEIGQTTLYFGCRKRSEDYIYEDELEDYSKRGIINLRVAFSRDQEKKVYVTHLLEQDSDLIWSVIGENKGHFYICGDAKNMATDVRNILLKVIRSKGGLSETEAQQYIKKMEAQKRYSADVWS
# T1 sequence (Q86QH4 1-128 partner): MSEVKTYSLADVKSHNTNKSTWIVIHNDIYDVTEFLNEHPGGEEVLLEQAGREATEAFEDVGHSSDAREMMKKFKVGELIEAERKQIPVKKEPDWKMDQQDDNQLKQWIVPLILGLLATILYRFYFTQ
# [4] = target: T2, CYP6P3 (Anopheles gambiae, UniProt Q8T632); assay: biochemical
# T2 sequence (Q8T632 1-509): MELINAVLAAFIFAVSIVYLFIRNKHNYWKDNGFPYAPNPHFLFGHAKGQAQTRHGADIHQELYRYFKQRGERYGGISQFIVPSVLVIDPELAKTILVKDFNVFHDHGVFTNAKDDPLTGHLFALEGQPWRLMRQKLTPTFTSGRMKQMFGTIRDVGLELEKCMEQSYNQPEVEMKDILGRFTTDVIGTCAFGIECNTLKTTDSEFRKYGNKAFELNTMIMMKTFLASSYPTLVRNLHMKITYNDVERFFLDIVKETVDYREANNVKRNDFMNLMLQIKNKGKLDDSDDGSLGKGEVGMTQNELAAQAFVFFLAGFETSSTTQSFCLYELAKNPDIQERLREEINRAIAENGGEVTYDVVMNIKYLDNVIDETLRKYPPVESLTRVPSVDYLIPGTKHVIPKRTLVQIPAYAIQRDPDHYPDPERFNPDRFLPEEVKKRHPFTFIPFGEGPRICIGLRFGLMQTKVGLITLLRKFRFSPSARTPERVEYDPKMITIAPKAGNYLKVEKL
# T2 sequence (Q86QH5 1-679 partner): T1 sequence (Q86QH5 1-679 partner)
# T2 sequence (Q86QH4 1-128 partner): T1 sequence (Q86QH4 1-128 partner)
# [5] = target: T3, CYP6P2 (Anopheles gambiae, UniProt Q8T629, V81I); assay: biochemical; conditions: IC50 of DEF metabolism
# T3 sequence (Q8T629 1-507 V81I): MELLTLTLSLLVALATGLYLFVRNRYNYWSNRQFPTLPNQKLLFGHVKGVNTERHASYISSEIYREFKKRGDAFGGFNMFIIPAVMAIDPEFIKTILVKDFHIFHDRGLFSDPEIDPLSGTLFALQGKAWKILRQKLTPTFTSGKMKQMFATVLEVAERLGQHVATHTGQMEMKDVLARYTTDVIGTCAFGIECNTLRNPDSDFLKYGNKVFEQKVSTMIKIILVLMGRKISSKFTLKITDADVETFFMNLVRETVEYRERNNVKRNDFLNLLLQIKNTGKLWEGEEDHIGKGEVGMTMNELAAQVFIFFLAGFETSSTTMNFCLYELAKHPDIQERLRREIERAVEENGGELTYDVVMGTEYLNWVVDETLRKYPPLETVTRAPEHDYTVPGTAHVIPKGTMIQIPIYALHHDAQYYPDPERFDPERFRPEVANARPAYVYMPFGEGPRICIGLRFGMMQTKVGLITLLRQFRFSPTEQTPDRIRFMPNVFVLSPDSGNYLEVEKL
# T3 sequence (Q7QFI3 1-587 partner): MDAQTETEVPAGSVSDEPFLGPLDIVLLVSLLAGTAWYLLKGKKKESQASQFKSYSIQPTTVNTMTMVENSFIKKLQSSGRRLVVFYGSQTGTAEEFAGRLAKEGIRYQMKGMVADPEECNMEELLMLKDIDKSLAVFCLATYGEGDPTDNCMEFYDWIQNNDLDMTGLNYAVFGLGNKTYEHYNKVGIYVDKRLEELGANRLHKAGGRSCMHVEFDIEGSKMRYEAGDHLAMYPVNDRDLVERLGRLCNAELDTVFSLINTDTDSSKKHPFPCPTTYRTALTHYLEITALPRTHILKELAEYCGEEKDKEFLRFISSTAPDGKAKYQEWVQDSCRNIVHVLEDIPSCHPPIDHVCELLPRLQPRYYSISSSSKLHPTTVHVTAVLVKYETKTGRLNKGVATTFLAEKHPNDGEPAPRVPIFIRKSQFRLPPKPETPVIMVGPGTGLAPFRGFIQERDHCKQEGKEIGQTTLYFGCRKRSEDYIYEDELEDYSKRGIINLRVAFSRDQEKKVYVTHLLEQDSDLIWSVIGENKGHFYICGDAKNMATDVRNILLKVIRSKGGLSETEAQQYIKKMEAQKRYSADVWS
# T3 sequence (Q86QH4 1-128 partner): T1 sequence (Q86QH4 1-128 partner)
# [6] = target: T4, CYP9J5 (Anopheles gambiae, UniProt Q5TN57); assay: biochemical
# T4 sequence (Q5TN57 1-545): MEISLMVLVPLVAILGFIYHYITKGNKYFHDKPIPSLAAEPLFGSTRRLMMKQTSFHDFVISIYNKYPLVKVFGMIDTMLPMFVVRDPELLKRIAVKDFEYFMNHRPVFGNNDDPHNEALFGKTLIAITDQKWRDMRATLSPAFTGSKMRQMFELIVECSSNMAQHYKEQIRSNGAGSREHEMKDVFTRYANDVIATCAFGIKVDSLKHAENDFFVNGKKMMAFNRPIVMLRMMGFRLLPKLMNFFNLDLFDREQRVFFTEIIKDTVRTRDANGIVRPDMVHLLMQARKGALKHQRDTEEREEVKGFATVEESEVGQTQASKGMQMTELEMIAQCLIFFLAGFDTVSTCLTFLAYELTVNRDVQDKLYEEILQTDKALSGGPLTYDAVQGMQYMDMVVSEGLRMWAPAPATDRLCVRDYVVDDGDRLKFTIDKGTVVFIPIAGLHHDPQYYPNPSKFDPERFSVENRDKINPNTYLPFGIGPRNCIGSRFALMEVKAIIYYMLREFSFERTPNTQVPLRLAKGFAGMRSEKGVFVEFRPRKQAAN
# T4 sequence (Q86QH5 1-679 partner): T1 sequence (Q86QH5 1-679 partner)
# T4 sequence (Q86QH4 1-128 partner): T1 sequence (Q86QH4 1-128 partner)
# Chain of CYP6M2 (Q7Q449 1-499, one chain of several): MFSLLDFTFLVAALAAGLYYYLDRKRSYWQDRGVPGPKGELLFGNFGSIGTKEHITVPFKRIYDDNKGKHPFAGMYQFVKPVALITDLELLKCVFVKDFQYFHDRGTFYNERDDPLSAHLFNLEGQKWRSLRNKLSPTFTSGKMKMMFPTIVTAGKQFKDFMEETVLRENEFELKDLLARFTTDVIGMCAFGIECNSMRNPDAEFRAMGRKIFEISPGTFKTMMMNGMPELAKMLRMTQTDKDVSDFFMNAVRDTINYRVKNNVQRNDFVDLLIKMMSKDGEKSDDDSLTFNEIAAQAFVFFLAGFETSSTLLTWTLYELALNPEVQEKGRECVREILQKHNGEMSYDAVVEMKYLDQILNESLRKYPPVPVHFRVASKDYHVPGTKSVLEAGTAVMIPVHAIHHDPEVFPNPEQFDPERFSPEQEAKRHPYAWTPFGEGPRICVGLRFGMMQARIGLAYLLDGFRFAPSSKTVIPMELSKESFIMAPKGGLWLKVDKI
structure (smiles),measurement,setting,value
"CC1(C)[C@H](C(=O)O[C@H](C#N)c2cccc(Oc3ccccc3)c2)[C@@H]1C=C(Br)Br [Deltamethrin, (S)-α-cyano-3-phenoxybenzyl (1R,3R)-cis-2,2-dimethyl-3-(2,2-dibromovinyl)-cyclopropanecarboxylate]",IC50,[1],4.24 µM
same,IC50,"[2]; pH 7.4, IC50 of DEF activity",1 to 10 µM
same,IC50,"[2]; pH 7.4, category of inhibition of DEF activity",1 to 10 µM
same,IC50,[3]; IC50 of DEF metabolism,14 µM
same,IC50,[3]; category of inhibition of DEF metabolism,> 10 µM
same,IC50,[4],3.17 µM
same,IC50,[5],4.97 µM
same,IC50,[6],6.05 µM
